Test results as given in BindingDB's records for doi:10.1038/nchembio.2195 (University of Texas M. D. Anderson Cancer Center, 2016).

Experiments:
Gamma-enolase = Gamma-enolase (Homo sapiens, UniProt P09104); test: Enolase Enzymatic Assays; conditions: pH 7.4
Description: (§1) Enolase activity was measured by two different methods: a fluorometric NADH-linked assay or adirect spectrophotometric assay via formation of PEP. In the fluorescent assay,enolase activity was measured via NADH oxidation in a pyruvate kinase-dehydrogenase coupled assay. The assay is conducted in 10 mM KCl, 5 mM MgSO4, and 100 mM triethanolamine at pH 7.4, with 400 uM NADH and 2 mM ADP. 2-PGA, pyruvate kinase (PK) and lactate dehydrogenase(LDH) are provided in excess, with conversion of 2-PGA to PEP by enolase being rate limiting. PEP (with ADP) is substrate of PK; pyruvate formed by thisreaction is linked to NADH oxidation by LDH. Enolase activity is determinedby fluorescence measurement of oxidation of NADH by excitation at 340 nmand emission at 460 nm. The substrate concentration was 5 mM 2-PGA unlessotherwise indicated. Fluorescence was measured using an Omega FluorescencePlate Reader (BMG Labtech). Alternatively, enolase activity was measured directly by the appearance of PEP from 2-PGA via absorption at 240 nm. The assay medium was the same, except that all the auxiliary reagents (PK or LDH, NADH and ADP) are omitted. Both assays were conducted in a 96-well plate format, with the direct assay performed in UV-transmissible plates.

Alpha-enolase = Alpha-enolase (Homo sapiens, UniProt P06733); test: Enolase Enzymatic Assays; conditions: pH 7.4
Alpha-enolase, sequence (P06733 whole entry): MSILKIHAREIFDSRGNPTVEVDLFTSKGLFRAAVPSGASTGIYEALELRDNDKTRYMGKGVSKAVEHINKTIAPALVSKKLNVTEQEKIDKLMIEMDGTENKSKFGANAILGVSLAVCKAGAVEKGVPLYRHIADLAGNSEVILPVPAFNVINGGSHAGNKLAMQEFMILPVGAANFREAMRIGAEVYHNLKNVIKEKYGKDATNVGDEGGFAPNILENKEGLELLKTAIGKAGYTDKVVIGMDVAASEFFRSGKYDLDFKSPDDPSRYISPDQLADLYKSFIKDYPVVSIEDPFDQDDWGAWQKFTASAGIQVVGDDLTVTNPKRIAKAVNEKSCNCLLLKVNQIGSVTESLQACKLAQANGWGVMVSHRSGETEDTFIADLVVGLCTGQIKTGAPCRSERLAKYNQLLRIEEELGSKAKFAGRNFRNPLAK
Description: as §1

Gamma-enolase, sequence (P09104 whole entry): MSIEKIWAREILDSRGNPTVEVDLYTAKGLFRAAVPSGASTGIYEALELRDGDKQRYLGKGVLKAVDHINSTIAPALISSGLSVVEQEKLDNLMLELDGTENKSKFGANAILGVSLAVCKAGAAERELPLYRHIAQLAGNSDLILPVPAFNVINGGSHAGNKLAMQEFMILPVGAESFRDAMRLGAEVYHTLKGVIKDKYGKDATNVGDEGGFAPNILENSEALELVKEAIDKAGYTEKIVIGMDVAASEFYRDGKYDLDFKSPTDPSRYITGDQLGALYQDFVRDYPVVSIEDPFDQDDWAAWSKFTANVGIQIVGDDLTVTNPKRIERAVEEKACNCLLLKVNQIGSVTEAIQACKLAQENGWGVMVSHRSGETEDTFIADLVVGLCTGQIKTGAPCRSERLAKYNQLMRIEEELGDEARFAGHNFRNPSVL

Structure (SMILES): O=C1[C@@H](P(=O)(O)O)C[C@H](O)N1O [SF2312]
- IC50 (Gamma-enolase): 42.5 nM
- IC50 (Alpha-enolase): 37.9 nM

Structure (SMILES): O=C(CP(=O)(O)O)NO [phosphonoacetohydroxamate (PhAH)]
- IC50 (Gamma-enolase): 62.3 nM
- IC50 (Alpha-enolase): 53.2 nM
